Assay results from BindingDB's records for doi:10.1021/jm00019a005 (Warner-Lambert, 1995).

Target: Type-2 angiotensin II receptor (Oryctolagus cuniculus)
Test: The compound was tested for binding affinity against Angiotensin II receptor, type 2 from rabbit uterus membrane by using [125I]AngII as radioligand

CCCCc1ncc(C=C2C(=O)NC(=O)N2CCCC)n1Cc1ccc(-c2ccccc2-c2nnn[nH]2)cc1 [1-Butyl-5-[1-{2-butyl-3-[2'-(1H-tetrazol-5-yl)-biphenyl-4-ylmethyl]-3H-imidazol-4-yl}-meth-(Z)-ylidene]-imidazolidine-2,4-dione]
IC50: 0.789 µM

CCCCc1ncc(/C=C2/C(=O)N(CCCC)C(=O)N2CCCC)n1Cc1ccc(C(=O)OC)cc1 [4-{2-Butyl-5-[1,3-dibutyl-2,5-dioxo-imidazolidin-(4Z)-ylidenemethyl]-imidazol-1-ylmethyl}-benzoic acid methyl ester]
IC50: 5.87 µM
